The values below come from ChEMBL document CHEMBL1201862, “PubChem BioAssay data set” (2004).

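Compound exposure: 48 hours, 5 concentrations, 96-well plates. At the GI50, growth is halved.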 The source made the active and inactive calls. No stated cut-off is given here; in the data, active = GI50 up to about 1.1 µM and inactive = higher.

Common to all, as to test: growth of human tumour cells (NCI), 48 h
Test [1] has as its system RXF 393.
Test [2] relates to ACHN.
Test [3] concerns IGROV-1.
The subject of test [4] is SF-268.
Test [5] has as its system HOP-92.
Test [6] relates to SR.
Test [7] has as its system NCI/ADR-RES.
In test [8] the test system is EKVX.
The test system of test [9] is SK-OV-3.
Test [10] has as its system LOX IMVI.
The subject of test [11] is MCF7.
Test [12] has as its system HCC 2998.
The test system of test [13] is SF-539.
In test [14] the test system is HOP-62.
The test system of test [15] is TK-10.
Test [16] relates to KM12.
Test [17] concerns SNB-19.
The test system of test [18] is COLO 205.
In test [19] the test system is DLD-1.
Test [20] has as its system KM-20L2.

For the molecule `CC(=O)Nc1ccc2[nH]c(C(=O)N3CC(CCl)c4c3cc(N)c3ccccc43)cc2c1` (configuration not stated), the GI50 in [1] was < 0.01 µM (active); in test [2] it was < 0.01 µM (active); in [3], 0.0143 µM (active); in test [4], < 0.01 µM (active); in test [5], < 0.0191 µM (active); in test [6] it was < 0.01 µM (active). The GI50 was 0.0182 µM (active) in test [7]; < 0.0148 µM (active) in test [8]; 0.0174 µM (active) in [9]; < 0.0115 µM (active) in [10]; 0.0107 µM (active) in test [11]; < 0.01 µM (active) in test [12]. The GI50 was 0.0129 µM (active) in test [13]; < 0.0152 µM (active) in test [14]; < 0.0157 µM (active) in test [15]; < 0.01 µM (active) in test [16]; < 0.0217 µM (active) in test [17]; 0.0139 µM (active) in test [18].

`CCCCCCCCCCCCCCCC(=O)OC1C(O)C(CO)OC(OC)C1NC(=O)N(CCCl)N=O` (configuration not stated): the GI50 in test [19] was 16.2 µM (inactive); in test [2], 8.81 µM (inactive); in test [20], 17.9 µM (inactive); in test [3], 17.4 µM (inactive); in [4], 2.64 µM (inactive); in test [6] it was 4.46 µM (inactive). Moreover, the GI50 in test [8] is 20.1 µM (inactive); in test [10] it was 11.4 µM (inactive); in test [13] it was 1.08 µM (active); in test [14], 15.4 µM (inactive); in test [15], 15.5 µM (inactive); in test [16], 16.5 µM (inactive). In addition, the GI50 in [17] was 10.4 µM (inactive); in [18], 18.7 µM (inactive).

As to `C=CCn1c(=O)c(Br)nn(CCOCP(=O)(OCC)OCC)c1=O`, the GI50 in test [1], in [2], in test [3], in test [4], in test [5] and in [6] was > 100 µM (inactive) each time. In addition, the GI50 in [7], in test [8], in test [10], in test [11], in test [12] and in [13] was > 100 µM (inactive) in each case. For the same molecule, the GI50 in test [14], in test [16], in test [17] and in [18] was > 100 µM (inactive) in each case.

With `NC(Cc1ccccc1)C(=O)N[C@H]1c2ccsc2/C(=N/O)[C@H]1O` (some centres not stated), the GI50 in [1], in [3], in test [5], in [6], in test [7] and in test [8] was > 100 µM (inactive) each time. In addition, the GI50 in test [9], in [10], in test [11], in [12], in test [13] and in test [14] was > 100 µM (inactive) each time. The GI50 in [15] and in [18] was > 100 µM (inactive) in each case.

With `COc1ccc(C(=O)Cc2ccc(Br)cc2)cc1OC`, the GI50 in [19] was > 100 µM (inactive); in test [1], 72.8 µM (inactive); in test [2], > 100 µM (inactive); in test [20] it was > 100 µM (inactive); in [3], > 100 µM (inactive); in [4], > 100 µM (inactive). The GI50 in test [6], in [8], in test [9], in test [10], in test [12] and in [13] was > 100 µM (inactive) throughout. Further, the figures for the GI50 in test [14], in [15] and in test [17] were 79.1 µM (inactive), 56 µM (inactive) and > 100 µM (inactive), respectively.

Take `O=[PH](O)c1cccs1`: the GI50 in test [19], in test [1], in [2], in test [20], in test [3] and in test [4] was > 100 µM (inactive) in each case. In addition, the GI50 in test [5] was 57 µM (inactive); in test [8], > 100 µM (inactive); in test [9], > 100 µM (inactive); in test [10], > 100 µM (inactive); in test [13], > 100 µM (inactive); in test [15] it was > 100 µM (inactive). Also, the GI50 in test [17] and in [18] was > 100 µM (inactive) in each case.

For `COc1ccc(N2CN(C)CSC2=S)cc1`, the GI50 in test [1] is > 100 µM (inactive); in test [2], > 100 µM (inactive); in [3], 77.6 µM (inactive); in [4], 97.9 µM (inactive); in test [7], > 100 µM (inactive); in test [8] it was > 100 µM (inactive). The GI50 in [9] was 27.1 µM (inactive); in [10], 86.7 µM (inactive); in test [11], 89.7 µM (inactive); in [12], > 100 µM (inactive); in [13], > 100 µM (inactive); in [14] it was 25.9 µM (inactive). For the same molecule, the GI50 in [15], in [16], in [17] and in test [18] was > 100 µM (inactive) throughout.

Consider `CO/N=C1/c2sccc2[C@H](NC(=O)C(F)(F)F)[C@@H]1O`, for which the GI50 in [1], in [3], in test [4], in [5], in test [6] and in [7] was > 100 µM (inactive) throughout. For the same molecule, the GI50 in test [8], in [9], in test [10], in [11], in test [12] and in test [13] was > 100 µM (inactive) in each case. For the same molecule, the GI50 in test [14], in test [15] and in test [18] was > 100 µM (inactive) each time.

As for `Cc1ccc(S(=O)(=O)NCCCSCCSCCCN)cc1`, the GI50 in test [1], in test [2], in test [4], in [5], in test [6] and in [7] was > 100 µM (inactive) throughout. Further, the GI50 in test [9], in test [10], in [11], in test [12], in [15] and in [16] was > 100 µM (inactive) each time. The GI50 in test [17] and in [18] was > 100 µM (inactive) each time.

For the molecule `COC(=O)Cc1c(-c2c(CC(=O)OC)c3ccccc3n2C2OC(COC(C)=O)C(OC(C)=O)C(OC(C)=O)C2OC(C)=O)[nH]c2ccccc12` (configuration not stated), the GI50 in [3] is 74.6 µM (inactive); in test [4] it was > 100 µM (inactive); in test [5] it was > 100 µM (inactive); in test [6] it was > 100 µM (inactive); in [8] it was > 100 µM (inactive); in test [9] it was > 100 µM (inactive). In addition, the GI50 was > 100 µM (inactive) in [12]; > 100 µM (inactive) in [14]; > 100 µM (inactive) in test [15]; 85.3 µM (inactive) in [16]; > 100 µM (inactive) in test [17]; > 100 µM (inactive) in test [18].

In the case of `CCCOC1OC(CS(=O)(=O)O)C(OC(C)=O)C(OC(C)=O)C1OC(C)=O` (configuration not stated), the GI50 in test [1], in test [3], in test [5], in test [6], in test [7] and in [9] was > 100 µM (inactive) throughout. The GI50 in [10], in test [11], in test [12], in test [14], in test [15] and in [16] was > 100 µM (inactive) each time. Besides, the GI50 in test [17] and in test [18] was > 100 µM (inactive) throughout.

Consider `Cc1c2cc[n+](C)cc2c(C)c2c1[nH]c1ccccc12`, for which the GI50 is 1.68 µM (inactive) in test [19]; 1.75 µM (inactive) in [1]; 3.44 µM (inactive) in test [3]; 0.408 µM (active) in test [4]; 1.33 µM (inactive) in [5]; 0.718 µM (active) in test [8]. Also, the GI50 in test [9] was 6.67 µM (inactive); in test [10], 10.9 µM (inactive); in test [11] it was 3.08 µM (inactive); in test [12] it was 3.49 µM (inactive); in [13] it was 0.468 µM (active); in [14] it was 0.441 µM (active). Besides, the GI50 was 0.402 µM (active) in test [16], 0.274 µM (active) in test [17] and 0.665 µM (active) in [18].

With `Oc1ccc(/C=C/c2cc(O)cc(O)c2)cc1` [RESVERATROL], the GI50 was 40.9 µM (inactive) in test [1]; 27 µM (inactive) in [2]; > 100 µM (inactive) in [4]; > 100 µM (inactive) in test [5]; 53.1 µM (inactive) in test [6]; 19.6 µM (inactive) in test [7]. The GI50 was 81.5 µM (inactive) in test [8]; 79.3 µM (inactive) in test [9]; 67 µM (inactive) in test [11]; 62.4 µM (inactive) in test [12]; 29.6 µM (inactive) in [13]; 92 µM (inactive) in test [14]. In addition, the GI50 in test [15] is > 100 µM (inactive); in [16] it was 31.9 µM (inactive); in [17], > 100 µM (inactive).
